# Data taken from patent US20140106967A1, “AUXIN PLANT GROWTH REGULATORS” (The Governors of The University of Alberta, priority 2011, published 2014).
# How the values were obtained:
# [1] = test system: canola cv. Peace; assay: Greenhouse canola study, foliar auxin spray at green bud stage, with or without heat stress (Tables C1-C4); assay type: in vivo, Brassica napus; conditions: for % pod set / Seed yield / Total number of flowers / Total number of pods with developing seeds / Total number of racemes / Total number undeveloped pods: heat stress 33° C. 6 h/day, 6 days (Table C2); for % pod set per plant / Seed yield (g) per plant / Total number of flowers per plant / Total number of pods with developing seeds per plant / Total number of racemes per plant / Total number undeveloped pods per plant: non-heat stress (Table C1)
# Method: Canola seeds (Brassica napus) from the cultivar Peace were planted at an approximate depth of 1 cm in 5 inch square plastic pots (6 inch pot depth; 4 seeds per pot) in 1:1 Sunshine #4 potting mix (Sun Gro Horticulture, Vancouver, Canada) and sand. The seedlings were thinned to one seedling per pot approximately 2 weeks after seeding. Plants were grown at the University of Alberta in a greenhouse from Nov. 14, 2011 to Mar. 5, 2012. The average temperature was approximately 18° C. day/16° C. night (Nov. 14, 2011 to Feb. 8, 2012) then 21° C. day/19° C. night from Feb. 8 to Mar. 5, 2012. The plants also received supplemental lighting daily (average photon flux density of 250 μE m^−2s^−2) for 16 hours per day (from 6 am to 10 pm).
# The auxins, 4-methyl-indole-3-acetic acid (4-ME-IAA) or 4-chloro-indole-3-acetic acid (4-Cl-IAA) at 1×10^−7, 1×10^−6, 1×10^−5, or 1×10^−4M in aqueous 0.1% (v/v) Tween 80 or a control solution (aqueous 0.1% [v/v] Tween 80) were applied one time as a foliar spray to canola plants at the green bud stage (BBCH scale 51; prior to bolting when flower buds are visible from above, but they are tightly clustered and have not extended above smallest leaves surrounding the inflorescence). The experiment was arranged in a completely randomized design in the greenhouse.
# The heat stress treatment was imposed by moving plants to receive the heat stress from the greenhouse into a growth chamber for 6 days. The light cycle began at 7:00 hours at a 19° C. air temperature. The heat treatment began at 11:00 hours (33° C. air temperature) and was maintained for 6 hours (until 17:00 hours). Following the heat treatment, the remainder of the light cycle was maintained at a 22° C. air temperature. The dark cycle (began at 23:00 hours) was maintained at 17° C. The photoperiod was 16 h light/8 h dark at an average photon flux density of 492 μE m^−2s^−2 using 54W/835/HO high fluorescent bulbs, Phillips, Holland. This heat treatment cycle was imposed for 6 days. The plants were returned to the greenhouse after the heat stress treatment to develop to maturity.
# [2] = test system: Pisum sativum L. cv. Carneval; assay: Growth chamber pea study: one 4-ME-IAA spray, heat-stressed and non-stressed plants (Tables 1, 2); assay type: in vivo; design: more pods per plant with mature seeds than control / increase in number of seeds per plant vs control / increase in total seed weight per plant vs control: tested at 1 µM
# Text: ‘Carneval’ (Pisum sativum L.) was chosen as a model cultivar as a semi-dwarf (semi-leafless; an field pea which is used extensively in crop agriculture. ‘Carneval’ has white flowers and yellow cotyledons at maturity, begins to flower at about the 15 to 17th node under long day conditions. Seeds of ‘Carneval’ were planted at an approximate depth of 2.5 cm in 3-L plastic pots (4 seeds per pot and thinned to 2 plants per pot after approximately 2 weeks) in 1:1 Sunshine #4 potting mix (Sun Gro Horticulture, Vancouver, Canada) and sand. Approximately 15 cc of slow-release fertilizer (14-14-14) was added to the potting mix at planting. The experiment was arranged in a completely randomized design and grown at the University of Alberta in a growth chamber set at 19° C./17° C. (day/night) with a 16/8-h photoperiod under cool-white fluorescent lights (F54/15/835/HO high fluorescent bulbs, Phillips, Holland; 350 μE m^2 s^−2, measured with a LI-188 photometer, Li-Cor Biosciences, Lincoln, Nebr.). For the heat stress treatment, plants were placed in a separate growth chamber with a 16/8-h photoperiod under cool-white fluorescent lights (F54/15/835/HO high fluorescent bulbs, Phillips, Holland) for 4 days where the temperature was cycled over a 24 hr period as follows: 34° C. air temperature for 6 hours per day (between 11:00 and 17:00 hrs) for 4 days during the light cycle; the remainder of the light cycle was maintained at a 22° C. air temperature; the dark cycle was maintained at 19° C. After the 4 day heat treatment, the plants were returned to the same growth chamber they were originally grown in, where they were taken to maturity. One application of 4-ME-IAA (1 μM in 0.1% Tween 80) or 0.1% Tween 80 (control) was applied as a spray to the entire plant to cover when the first flowering node of the main stem was at the flower bud or full bloom stage. For the heat stress treatment, the hormone or control application was completed 16 hrs prior to the initiation of the first heat-stress cycle.
# [3] = 1 μM, non-heat stressed, at plant maturity
# [4] = non-stressed, at plant maturity
smiles,measurement,setting,value
"Cc1cccc2[nH]cc(CC(=O)O)c12 [4-ME-IAA, 4-methyl-indole-3-acetic acid]",leaf epinasty,"[1]; 1×10^−4 M, 24 hours after treatment, milder under heat stress",leaf epinasty was observed
same,% pod set,[1]; 1×10^−4 M,60 ± 1%
same,Seed yield,[1]; 1×10^−4 M,6.0 ± 1.0 g
same,Total number of flowers,[1]; 1×10^−4 M,326 ± 34
same,Total number of pods with developing seeds,[1]; 1×10^−4 M,196 ± 19
same,Total number of racemes,[1]; 1×10^−4 M,12 ± 1
same,Total number undeveloped pods,[1]; 1×10^−4 M,34 ± 10
same,% pod set per plant,[1]; 1×10^−4 M,57 ± 2%
same,Seed yield (g) per plant,[1]; 1×10^−4 M,4.9 ± 0.4 g
same,Total number of flowers per plant,[1]; 1×10^−4 M,261 ± 14
same,Total number of pods with developing seeds per plant,[1]; 1×10^−4 M,148 ± 9
same,Total number of racemes per plant,[1]; 1×10^−4 M,11 ± 1
same,Total number undeveloped pods per plant,[1]; 1×10^−4 M,16 ± 2
same,increase in total number of flowers per plant vs control,"[1]; 1×10^−5 M, heat stress",43%
same,increase in total number of racemes per plant vs control,"[1]; 1×10^−5 M, heat stress",38%
same,% pod set,[1]; 1×10^−5 M,50 ± 2%
same,Seed yield,[1]; 1×10^−5 M,5.9 ± 1.2 g
same,Total number of flowers,[1]; 1×10^−5 M,520 ± 102
same,Total number of pods with developing seeds,[1]; 1×10^−5 M,259 ± 55
same,Total number of racemes,[1]; 1×10^−5 M,18 ± 2
same,Total number undeveloped pods,[1]; 1×10^−5 M,64 ± 13
same,% pod set per plant,[1]; 1×10^−5 M,62 ± 5%
same,Seed yield (g) per plant,[1]; 1×10^−5 M,5.7 ± 0.7 g
same,Total number of flowers per plant,[1]; 1×10^−5 M,265 ± 14
same,Total number of pods with developing seeds per plant,[1]; 1×10^−5 M,165 ± 18
same,Total number of racemes per plant,[1]; 1×10^−5 M,10 ± 0
same,Total number undeveloped pods per plant,[1]; 1×10^−5 M,22 ± 6
same,% pod set,[1]; 1×10^−6 M,44 ± 7%
same,Total number of flowers,[1]; 1×10^−6 M,435 ± 89
same,Total number of pods with developing seeds,[1]; 1×10^−6 M,167 ± 15
same,Total number of racemes,[1]; 1×10^−6 M,13 ± 2
same,Total number undeveloped pods,[1]; 1×10^−6 M,71 ± 37
same,% pod set per plant,[1]; 1×10^−6 M,62 ± 3%
same,Total number of flowers per plant,[1]; 1×10^−6 M,250 ± 21
same,Total number of pods with developing seeds per plant,[1]; 1×10^−6 M,155 ± 16
same,Total number of racemes per plant,[1]; 1×10^−6 M,10 ± 1
same,Total number undeveloped pods per plant,[1]; 1×10^−6 M,17 ± 5
same,% pod set,[1]; 1×10^−7 M,52 ± 4%
same,Seed yield,[1]; 1×10^−7 M,5.4 ± 0.9 g
same,Total number of flowers,[1]; 1×10^−7 M,418 ± 25
same,Total number of pods with developing seeds,[1]; 1×10^−7 M,213 ± 6
same,Total number of racemes,[1]; 1×10^−7 M,14 ± 1
same,Total number undeveloped pods,[1]; 1×10^−7 M,50 ± 26
same,increase in total number of pods with developing seeds per plant vs control,"[1]; 1×10^−7 M, heat stress (6 hours at 33° C. per day for 6 days)",13%
same,increase in seed yield vs control,"[1]; 1×10^−7 M, non-heat stress",22%
same,increase in total number of pods with developing seeds per plant vs control,"[1]; 1×10^−7 M, non-heat stress",10%
same,% pod set per plant,[1]; 1×10^−7 M,66 ± 1%
same,Seed yield (g) per plant,[1]; 1×10^−7 M,5.5 ± 0.4 g
same,Total number of flowers per plant,[1]; 1×10^−7 M,256 ± 12
same,Total number of pods with developing seeds per plant,[1]; 1×10^−7 M,170 ± 7
same,Total number of racemes per plant,[1]; 1×10^−7 M,10 ± 1
same,Total number undeveloped pods per plant,[1]; 1×10^−7 M,17 ± 3
same,"plant maturation (dry-down), FIG. 3","[2]; 1 μM in 0.1% Tween 80, 34 days after spray",stimulated maturation of the plant
same,Number of pods per plant,[2]; [3],14.9 ± 0.6
same,Number of seeds per plant,[2]; [3],57.6 ± 3.5
same,Number of stems/stems with pods per plant,[2]; [3],1.1 ± 0.1
same,Total seed weight per plant,[2]; [3],13.56 ± 0.64 g
same,Weight per seed,[2]; [3],0.24 ± 0.01 g
same,Number of pods with developing seeds per plant,"[2]; Heat-stressed (34° C. 6 h/day, 4 days), 1 μM in 0.1% Tween 80, 16 hr before heat, 9 to 10 days after removal from heat treatment",10.6 ± 0.8
same,Number of pods with developing seeds per plant,"[2]; Non-stressed (19° C./17° C.), 1 μM in 0.1% Tween 80, 9 to 10 days",15.4 ± 0.6
same,increase in pod retention vs control,"[2]; heat-stress conditions, 9-10 days after application",112%
same,"pod retention, FIG. 2","[2]; non-stressed and heat-stress conditions, 9-10 days after application",increased pod retention
same,increase in pod retention vs control,"[2]; non-stressed conditions, 9-10 days after application",41%
same,Weight per seed,[2]; [4],240 mg per seed
same,increase in number of seeds per plant vs control,[2]; [4],39%
same,increase in total seed weight per plant vs control,[2]; [4],23%
same,more pods per plant with mature seeds than control,[2]; [4],42%
